Measurements: patent US20250230226A1, “PLXDC1/PLXDC2 ACTIVATORS AND THEIR USE IN THE TREATMENT OF BLOOD VESSEL DISORDERS” (THE REGENTS OF THE UNIVERSITY OF CALIFORNIA, priority 2019, published 2025)

Columns and labels:
tumor blood vessels = assay: Tumor animal model, bolus IV injection (FIG. 23-26); format: in vivo, mice; conditions: bolus IV injection at day 0
Text: Treatment was done at day 0 by bolus IV injection. A. Raw data of tumor growth curves of the mice in the control group. B. Raw data of tumor growth curves of the mice in the treatment group. C. Comparison of the combined growth data of the control group and the treatment group.
Pictures of the whole animals in the experiment described in FIG. 11 show tumor morphological and color changes on day 1 and day 3. Treatment was done at day 0. Tumors in the treatment groups becomes darker in color on day 1 due to the destruction of tumor blood vessels and accumulation of blood in the tumors. Tumors in the treatment groups start to become yellower in color on day 3, consistent with the onset of tumor necrosis due to the lack of tumor blood vessels.
FIG. 25A-B show tumor morphological changes on live animals due to the treatment by PLXDC1-activating compound. Pictures of the whole animals in the experiment described in FIG. 11 show tumor morphological and color changes on day 7. Treatment was done at day 0. While the tumors in the control group have grown to large sizes, tumors in the treatment groups have highly shrunk in size and become yellow in color.
FIG. 26A-B show morphological changes of dissected tumors due to the treatment by PLXDC1-activating compound. Pictures of the dissected tumors in the experiment described in FIG. 11 show tumor morphological and color changes on day 7. […]

[1] = test system: LL/2 lung cancer tumor endothelial cells; assay: Lung LL2 ex vivo model of tumor angiogenesis; format: cell-based, mouse; conditions: 20 μm
Summary of the method: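 LL2 mouse tumor fragments (~0.075 mm³) embedded in Matrigel and cultured in endothelial growth medium at 37 °C until endothelial outgrowth (~4 days) before treatment. Cell death assessed e.g. 48 h after drug by fluorescein diacetate (live)/propidium iodide (dead) staining and red/green fluorescence imaging.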

SMILES: CCCCCCCCCCCCCCOc1ccc(S(=O)(=O)c2cnc3ccc([S+](C)[O-])cc3c2N2CCC(N3CCC(N4CCN(C)CC4)CC3)CC2)cc1 (stereo not drawn) [Compound 346]
- Tumor growth / shrinkage (tumor blood vessels): shrank the tumors significantly
- 48 hrs (morphology observations) ([1]; 48 hours, LL/2 tumor endothelial cells): * (50% or less of cells vesicularize in cell shape)
- Cell death ([1]; drug treatment for two days, ratio of red area to total endothelial cell area): 20%
